Results taken from the kinase profiling compilation of Christmann-Franck et al. (2016).
“And” between values parts separate entries of the source, which are not always exact repeats. Equal entries are not always repeated.

Tests used:
Test in all cases: radiometric filter-binding kinase assay, Kinase HotSpot
Conditions in all cases: compound 0.5 µM; ATP 10 µM
[1] = biological target: ADRBK2 (human) (UniProt P35626)
[2] = biological target: RPS6KA3 KD1 KD2 (human) (UniProt P51812)
[3] = biological target: MAPK13 (human) (UniProt O15264)
[4] = biological target: CDK5 CDK5R1 p25 (human) (UniProt Q00535+Q15078)
[5] = biological target: MAPKAPK3 (human) (UniProt Q16644)
Sequence of MAPKAPK3 (human) (Q16644 whole entry, looked up): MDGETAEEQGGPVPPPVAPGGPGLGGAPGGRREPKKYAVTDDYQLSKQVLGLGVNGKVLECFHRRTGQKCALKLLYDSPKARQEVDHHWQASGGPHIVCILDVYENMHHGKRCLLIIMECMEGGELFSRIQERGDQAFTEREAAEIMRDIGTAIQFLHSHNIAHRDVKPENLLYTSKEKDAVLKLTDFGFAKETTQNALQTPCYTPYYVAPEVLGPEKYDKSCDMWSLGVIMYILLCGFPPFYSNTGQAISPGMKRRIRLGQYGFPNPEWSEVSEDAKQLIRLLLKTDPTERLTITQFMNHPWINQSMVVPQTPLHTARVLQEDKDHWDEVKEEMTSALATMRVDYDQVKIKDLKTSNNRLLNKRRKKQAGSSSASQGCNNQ

[6] = biological target: AKT3 (human) (UniProt Q9Y243)
Sequence of AKT3 (human) (Q9Y243 whole entry, looked up): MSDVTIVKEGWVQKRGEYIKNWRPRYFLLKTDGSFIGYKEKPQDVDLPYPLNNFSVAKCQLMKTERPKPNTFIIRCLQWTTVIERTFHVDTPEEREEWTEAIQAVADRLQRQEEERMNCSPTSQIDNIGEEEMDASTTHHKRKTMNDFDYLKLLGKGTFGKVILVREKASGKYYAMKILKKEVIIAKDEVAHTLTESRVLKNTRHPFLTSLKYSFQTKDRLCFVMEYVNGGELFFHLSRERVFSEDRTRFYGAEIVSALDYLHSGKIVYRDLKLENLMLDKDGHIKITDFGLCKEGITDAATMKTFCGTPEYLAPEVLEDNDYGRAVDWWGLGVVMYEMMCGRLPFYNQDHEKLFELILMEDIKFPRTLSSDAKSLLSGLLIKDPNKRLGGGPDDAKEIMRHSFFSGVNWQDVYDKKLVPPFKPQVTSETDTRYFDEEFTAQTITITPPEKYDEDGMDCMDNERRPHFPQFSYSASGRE

[7] = biological target: AXL (human) (UniProt P30530)
[8] = biological target: BRSK1 (human) (UniProt Q8TDC3)
[9] = biological target: MARK3 (human) (UniProt P27448)
[10] = biological target: PIM3 (human) (UniProt Q86V86)
[11] = biological target: MAP2K1 (human) (UniProt Q02750)
[12] = biological target: PHKG2 (human) (UniProt P15735)
[13] = biological target: EPHB2 (human) (UniProt P29323)
[14] = biological target: CDK1 CCNB1 (human) (UniProt P06493+P14635)
[15] = biological target: PRKD1 (human) (UniProt Q15139)
[16] = biological target: DAPK3 (human) (UniProt O43293)
[17] = biological target: LRRK2 (human) (UniProt Q5S007)
[18] = biological target: GSG2 (human) (UniProt Q8TF76)
[19] = biological target: MAP3K9 (human) (UniProt P80192)
[20] = biological target: LIMK1 (human) (UniProt P53667)
[21] = biological target: MYLK2 (human) (UniProt Q9H1R3)
[22] = biological target: INSR (human) (UniProt P06213)
[23] = biological target: RPS6KA5 KD2 (human) (UniProt O75582)
[24] = biological target: LCK (human) (UniProt P06239)
[25] = biological target: DYRK4 (human) (UniProt Q9NR20)
[26] = biological target: EPHA4 (human) (UniProt P54764)
Sequence of EPHA4 (human) (P54764 whole entry, looked up): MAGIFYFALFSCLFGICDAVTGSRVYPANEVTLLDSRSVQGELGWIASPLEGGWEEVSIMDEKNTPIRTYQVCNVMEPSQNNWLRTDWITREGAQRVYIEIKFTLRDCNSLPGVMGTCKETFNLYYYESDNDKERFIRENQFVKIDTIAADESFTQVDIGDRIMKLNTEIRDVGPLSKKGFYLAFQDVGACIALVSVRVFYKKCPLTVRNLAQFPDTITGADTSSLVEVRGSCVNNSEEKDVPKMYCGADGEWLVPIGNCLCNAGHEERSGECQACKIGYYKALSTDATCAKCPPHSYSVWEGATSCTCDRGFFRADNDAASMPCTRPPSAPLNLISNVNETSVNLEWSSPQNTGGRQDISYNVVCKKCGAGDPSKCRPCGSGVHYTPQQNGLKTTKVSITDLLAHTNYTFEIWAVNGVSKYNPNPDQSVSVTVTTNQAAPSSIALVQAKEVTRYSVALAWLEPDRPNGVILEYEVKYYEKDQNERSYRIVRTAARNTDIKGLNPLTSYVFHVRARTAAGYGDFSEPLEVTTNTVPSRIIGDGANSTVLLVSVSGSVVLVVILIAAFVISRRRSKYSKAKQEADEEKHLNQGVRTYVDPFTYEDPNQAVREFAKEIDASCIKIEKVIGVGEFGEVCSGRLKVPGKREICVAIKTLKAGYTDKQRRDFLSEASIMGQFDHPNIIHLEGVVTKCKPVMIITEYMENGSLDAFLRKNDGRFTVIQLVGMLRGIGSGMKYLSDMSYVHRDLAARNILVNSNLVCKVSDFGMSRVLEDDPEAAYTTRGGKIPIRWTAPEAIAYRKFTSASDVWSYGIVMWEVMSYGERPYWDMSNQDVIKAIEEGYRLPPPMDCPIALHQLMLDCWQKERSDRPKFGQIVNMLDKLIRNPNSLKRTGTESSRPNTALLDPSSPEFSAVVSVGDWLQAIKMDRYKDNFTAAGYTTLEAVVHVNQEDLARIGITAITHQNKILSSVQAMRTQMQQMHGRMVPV

[27] = biological target: PBK (human) (UniProt Q96KB5)
[28] = biological target: NLK (human) (UniProt Q9UBE8)
[29] = biological target: BMX (human) (UniProt P51813)
[30] = biological target: YES1 (human) (UniProt P07947)
[31] = biological target: EPHB1 (human) (UniProt P54762)
[32] = biological target: CSF1R (human) (UniProt P07333)
[33] = biological target: LYN (human) (UniProt P07948)
[34] = biological target: PAK7 (human) (UniProt Q9P286)
Sequence of PAK7 (human) (Q9P286 whole entry, looked up): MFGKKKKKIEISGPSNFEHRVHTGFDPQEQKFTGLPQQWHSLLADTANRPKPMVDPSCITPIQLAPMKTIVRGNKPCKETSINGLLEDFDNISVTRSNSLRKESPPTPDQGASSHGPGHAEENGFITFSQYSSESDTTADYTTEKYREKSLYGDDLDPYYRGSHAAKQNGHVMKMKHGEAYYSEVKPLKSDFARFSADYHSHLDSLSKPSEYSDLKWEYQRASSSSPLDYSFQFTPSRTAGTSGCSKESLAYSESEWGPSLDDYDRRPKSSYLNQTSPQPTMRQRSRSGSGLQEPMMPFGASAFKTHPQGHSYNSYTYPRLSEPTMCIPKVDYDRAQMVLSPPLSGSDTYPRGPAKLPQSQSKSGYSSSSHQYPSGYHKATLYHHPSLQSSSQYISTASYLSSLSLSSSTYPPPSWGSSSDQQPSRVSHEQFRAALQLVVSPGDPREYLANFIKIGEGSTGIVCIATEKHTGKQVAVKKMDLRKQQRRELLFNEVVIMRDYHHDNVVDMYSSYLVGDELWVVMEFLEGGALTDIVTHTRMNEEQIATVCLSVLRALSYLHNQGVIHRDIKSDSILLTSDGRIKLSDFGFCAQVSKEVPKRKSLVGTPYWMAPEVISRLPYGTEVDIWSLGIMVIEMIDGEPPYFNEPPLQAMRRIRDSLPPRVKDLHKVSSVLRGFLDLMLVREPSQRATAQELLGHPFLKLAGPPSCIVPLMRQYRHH

[35] = biological target: ACVR1B (human) (UniProt P36896)
[36] = biological target: STK24 (human) (UniProt Q9Y6E0)
[37] = biological target: PRKD3 (human) (UniProt O94806)
[38] = biological target: MAP2K2 (human) (UniProt P36507)
[39] = biological target: FLT3 (human) (UniProt P36888)
Sequence of FLT3 (human) (P36888 whole entry, looked up): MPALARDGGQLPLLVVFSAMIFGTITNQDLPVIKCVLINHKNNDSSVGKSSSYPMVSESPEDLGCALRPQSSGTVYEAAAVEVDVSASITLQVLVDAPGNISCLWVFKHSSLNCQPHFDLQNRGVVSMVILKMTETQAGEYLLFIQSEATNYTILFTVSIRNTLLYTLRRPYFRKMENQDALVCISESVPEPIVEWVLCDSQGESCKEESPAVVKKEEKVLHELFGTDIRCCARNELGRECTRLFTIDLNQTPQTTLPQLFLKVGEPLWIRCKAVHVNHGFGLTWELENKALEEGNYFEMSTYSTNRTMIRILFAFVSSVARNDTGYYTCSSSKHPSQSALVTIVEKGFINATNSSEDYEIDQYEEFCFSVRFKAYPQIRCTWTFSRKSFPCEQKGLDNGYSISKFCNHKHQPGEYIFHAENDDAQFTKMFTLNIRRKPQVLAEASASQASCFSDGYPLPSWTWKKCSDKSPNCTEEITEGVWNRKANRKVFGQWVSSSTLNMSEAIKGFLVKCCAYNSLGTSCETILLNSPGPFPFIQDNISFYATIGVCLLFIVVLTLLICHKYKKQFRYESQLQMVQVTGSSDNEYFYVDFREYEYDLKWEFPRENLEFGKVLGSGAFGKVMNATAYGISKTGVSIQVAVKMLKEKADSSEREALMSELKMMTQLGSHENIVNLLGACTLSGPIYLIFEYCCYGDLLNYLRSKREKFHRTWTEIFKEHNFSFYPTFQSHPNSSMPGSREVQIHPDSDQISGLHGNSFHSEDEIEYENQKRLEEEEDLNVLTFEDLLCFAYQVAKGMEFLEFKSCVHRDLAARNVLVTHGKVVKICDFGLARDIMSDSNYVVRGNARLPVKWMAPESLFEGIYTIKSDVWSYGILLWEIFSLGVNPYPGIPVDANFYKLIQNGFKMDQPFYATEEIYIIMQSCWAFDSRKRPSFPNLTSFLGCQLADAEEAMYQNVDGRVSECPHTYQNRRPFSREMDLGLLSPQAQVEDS

[40] = biological target: DMPK (human) (UniProt Q09013)
[41] = biological target: ULK2 (human) (UniProt Q8IYT8)
Sequence of ULK2 (human) (Q8IYT8 whole entry, looked up): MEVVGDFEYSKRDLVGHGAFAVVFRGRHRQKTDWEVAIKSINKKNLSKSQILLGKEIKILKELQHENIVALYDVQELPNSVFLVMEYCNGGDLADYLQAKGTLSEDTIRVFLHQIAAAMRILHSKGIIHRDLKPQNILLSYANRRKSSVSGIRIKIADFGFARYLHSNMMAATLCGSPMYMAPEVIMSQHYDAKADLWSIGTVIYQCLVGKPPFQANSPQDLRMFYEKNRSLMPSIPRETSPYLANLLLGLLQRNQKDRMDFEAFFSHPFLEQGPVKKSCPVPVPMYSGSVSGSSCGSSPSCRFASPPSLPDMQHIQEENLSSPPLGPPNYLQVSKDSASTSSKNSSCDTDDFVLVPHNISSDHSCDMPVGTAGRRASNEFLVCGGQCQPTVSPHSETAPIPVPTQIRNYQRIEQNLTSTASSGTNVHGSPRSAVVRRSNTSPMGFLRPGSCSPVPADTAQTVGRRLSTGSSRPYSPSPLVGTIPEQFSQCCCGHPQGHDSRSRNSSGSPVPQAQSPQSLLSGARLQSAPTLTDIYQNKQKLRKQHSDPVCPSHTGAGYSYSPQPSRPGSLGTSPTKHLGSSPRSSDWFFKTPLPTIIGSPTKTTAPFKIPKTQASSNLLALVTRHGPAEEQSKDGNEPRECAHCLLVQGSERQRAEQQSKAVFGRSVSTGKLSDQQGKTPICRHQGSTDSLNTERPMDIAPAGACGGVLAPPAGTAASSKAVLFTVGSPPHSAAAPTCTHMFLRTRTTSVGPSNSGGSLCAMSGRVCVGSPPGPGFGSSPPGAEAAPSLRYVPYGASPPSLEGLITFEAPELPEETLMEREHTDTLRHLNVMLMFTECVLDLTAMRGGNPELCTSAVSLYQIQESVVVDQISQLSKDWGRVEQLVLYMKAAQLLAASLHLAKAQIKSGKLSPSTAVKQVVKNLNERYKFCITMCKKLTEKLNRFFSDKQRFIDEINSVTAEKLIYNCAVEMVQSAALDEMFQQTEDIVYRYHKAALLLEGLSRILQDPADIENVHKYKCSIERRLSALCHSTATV

[42] = biological target: CAMKK1 (human) (UniProt Q8N5S9)

Question: With `CCCNC(=O)Nc1ccc(Oc2ncnc3cc(OC)c(OC)cc23)cc1Cl` as the compound, how does the residual activity [1] read?
Answer: The residual activity was 96.6%.

Question: What about the residual activity [2] of the same compound?
Answer: Its residual activity is 94.9%.

Question: What about the residual activity [3] of the same compound?
Answer: Its residual activity is 100%.

Question: What about the residual activity [4] of the same compound?
Answer: The residual activity was 95.7%.

Question: And the residual activity [5]?
Answer: Its residual activity is 95.8%.

Question: And the residual activity [6]?
Answer: The residual activity was 88.9%.

Question: And the residual activity [7]?
Answer: Its residual activity is 101%.

Question: What about the residual activity [8] of the same compound?
Answer: The residual activity was 98.5%.

Question: And the residual activity [9]?
Answer: The residual activity was 95.3%.

Question: What about the residual activity [10] of the same compound?
Answer: Its residual activity is 81.3%.

Question: What about the residual activity [11] of the same compound?
Answer: Its residual activity is 99.2%.

Question: And the residual activity [12]?
Answer: Its residual activity is 84.1%.

Question: And the residual activity [13]?
Answer: The residual activity was 90.8%.

Question: What about the residual activity [14] of the same compound?
Answer: Its residual activity is 98%.

Question: What about the residual activity [15] of the same compound?
Answer: The residual activity was 92.9%.

Question: What about the residual activity [16] of the same compound?
Answer: Its residual activity is 88.8%.

Question: And the residual activity [17]?
Answer: Its residual activity is 94.1%.

Question: And the residual activity [18]?
Answer: The residual activity was 99.1%.

Question: What about the residual activity [19] of the same compound?
Answer: Its residual activity is 88.9%.

Question: And the residual activity [20]?
Answer: The residual activity was 81.6%.

Question: And the residual activity [21]?
Answer: The residual activity was 99.9%.

Question: And the residual activity [22]?
Answer: Its residual activity is 92.4%.

Question: And the residual activity [23]?
Answer: The residual activity was 95.6%.

Question: And the residual activity [24]?
Answer: Its residual activity is 81.8%.

Question: What about the residual activity [25] of the same compound?
Answer: Its residual activity is 106%.

Question: And the residual activity [26]?
Answer: The residual activity was 93.4%.

Question: What about the residual activity [27] of the same compound?
Answer: The residual activity was 66.2%.

Question: What about the residual activity [28] of the same compound?
Answer: Its residual activity is 90.7%.

Question: What about the residual activity [29] of the same compound?
Answer: Its residual activity is 93.6%.

Question: What about the residual activity [30] of the same compound?
Answer: The residual activity was 82.1%.

Question: What about the residual activity [31] of the same compound?
Answer: The residual activity was 95.5%.

Question: And the residual activity [32]?
Answer: The residual activity was 51.1%.

Question: And the residual activity [33]?
Answer: Its residual activity is 75.5% and 94.1%.

Question: What about the residual activity [34] of the same compound?
Answer: The residual activity was 84.5%.

Question: And the residual activity [35]?
Answer: The residual activity was 99.6%.

Question: What about the residual activity [36] of the same compound?
Answer: Its residual activity is 91.7%.

Question: And the residual activity [37]?
Answer: Its residual activity is 93.4%.

Question: What about the residual activity [38] of the same compound?
Answer: The residual activity was 99.9%.

Question: What about the residual activity [39] of the same compound?
Answer: Its residual activity is 82.1%.

Question: And the residual activity [40]?
Answer: The residual activity was 100%.

Question: What about the residual activity [41] of the same compound?
Answer: The residual activity was 89.2%.

Question: And the residual activity [42]?
Answer: Its residual activity is 93.1%.

Question: Which results are given for `COc1cc2nccc(Oc3ccc(NC(=S)NC(=O)c4ccccc4C)cc3)c2cc1OC`?
Answer: residual activity [1]: 94.9%; residual activity [2]: 86.9%; residual activity [3]: 101%; residual activity [4]: 93.2%; residual activity [5]: 102%; residual activity [6]: 95.9%; residual activity [7]: 80.4%; residual activity [8]: 87%; residual activity [9]: 79.2%; residual activity [10]: 98.2%; residual activity [11]: 88.3%; residual activity [12]: 110%; residual activity [13]: 93.5%; residual activity [14]: 90.7%; residual activity [15]: 137%; residual activity [16]: 75.4%; residual activity [17]: 94.4%; residual activity [18]: 95.9%; residual activity [19]: 99.3%; residual activity [20]: 82.7%; residual activity [21]: 26.8%; residual activity [22]: 100%; residual activity [23]: 95.3%; residual activity [24]: 1.62%; residual activity [25]: 92.7%; residual activity [26]: 81.4%; residual activity [27]: 81.3%; residual activity [28]: 100%; residual activity [29]: 30.6%; residual activity [30]: 23.8%; residual activity [31]: 98.5%; residual activity [32]: 10.5%; residual activity [33]: 16.9% and 31.8%; residual activity [34]: 102%; residual activity [35]: 92.1%; residual activity [36]: 101%; residual activity [37]: 97.8%; residual activity [38]: 79.4%; residual activity [39]: 46.6%; residual activity [40]: 102%; residual activity [41]: 88.8%; residual activity [42]: 91.2%

Question: Which results are given for `Nc1nc(Nc2ccc(S(N)(=O)=O)cc2)nn1C(=O)c1c(F)cccc1F`?
Answer: residual activity [1]: 87.2%; residual activity [2]: 38.6%; residual activity [3]: 94.8%; residual activity [4]: 2.54%; residual activity [5]: 98%; residual activity [6]: 95%; residual activity [7]: 94.2%; residual activity [8]: 49.2%; residual activity [9]: 67.6%; residual activity [10]: 102%; residual activity [11]: 93.9%; residual activity [12]: 102%; residual activity [13]: 96.1%; residual activity [14]: 5.65%; residual activity [15]: 66.5%; residual activity [16]: 99.4%; residual activity [17]: 48.3%; residual activity [18]: 107%; residual activity [19]: 25.6%; residual activity [20]: 16.6%; residual activity [21]: 96.1%; residual activity [22]: 94.9%; residual activity [23]: 97.2%; residual activity [24]: 87.9%; residual activity [25]: 105%; residual activity [26]: 91.3%; residual activity [27]: 92.1%; residual activity [28]: 86%; residual activity [30]: 50.6%; residual activity [31]: 84.1%; residual activity [32]: 49.2%; residual activity [33]: 103% and 80.5%; residual activity [34]: 85.4%; residual activity [35]: 118%; residual activity [36]: 76.9%; residual activity [37]: 55.6%; residual activity [38]: 85.6%; residual activity [39]: 44.3%; residual activity [40]: 93.2%; residual activity [41]: 102%; residual activity [42]: 86.4%
